Results published in ChEMBL document CHEMBL5729675, “Sulfonamide compound or salt thereof” (2023).

These molecules were tested against Ribonucleotide reductase (Homo sapiens, UniProt P23921+Q7LG56) (assay: Human RNR Inhibition Effect: The inhibitory activity against the ribonucleotide reduction reaction (hereinafter referred to as RNR reaction) of the test compound was determined by measuring the formation of deoxycytidine diphosphate (hereinafter referred to as dCDP) from cytidine diphosphate (hereinafter referred to as CDP) by the following method.Human M1 subunit and human M2 subunit (mutant …).
Chain of Ribonucleotide reductase (P23921 whole entry, looked up): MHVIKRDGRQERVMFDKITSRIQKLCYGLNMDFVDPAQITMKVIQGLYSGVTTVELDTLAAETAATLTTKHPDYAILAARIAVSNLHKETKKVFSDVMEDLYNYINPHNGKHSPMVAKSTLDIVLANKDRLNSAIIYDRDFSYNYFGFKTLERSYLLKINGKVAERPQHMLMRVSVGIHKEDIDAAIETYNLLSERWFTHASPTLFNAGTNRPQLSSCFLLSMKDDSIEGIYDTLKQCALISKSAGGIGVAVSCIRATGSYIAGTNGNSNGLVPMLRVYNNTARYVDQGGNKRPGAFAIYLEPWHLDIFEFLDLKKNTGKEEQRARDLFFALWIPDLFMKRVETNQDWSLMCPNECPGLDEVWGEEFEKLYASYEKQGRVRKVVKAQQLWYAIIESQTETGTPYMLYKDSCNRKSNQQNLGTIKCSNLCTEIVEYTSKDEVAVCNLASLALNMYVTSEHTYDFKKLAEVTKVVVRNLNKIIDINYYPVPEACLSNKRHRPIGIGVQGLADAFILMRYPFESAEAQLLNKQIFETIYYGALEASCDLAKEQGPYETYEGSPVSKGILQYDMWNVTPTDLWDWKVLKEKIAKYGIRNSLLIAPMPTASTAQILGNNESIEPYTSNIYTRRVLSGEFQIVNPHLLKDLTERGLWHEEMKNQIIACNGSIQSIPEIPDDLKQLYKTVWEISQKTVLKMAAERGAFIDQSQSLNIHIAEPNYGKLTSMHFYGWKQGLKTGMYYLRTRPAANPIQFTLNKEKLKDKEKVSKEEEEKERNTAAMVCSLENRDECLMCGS
Chain of Ribonucleotide reductase (Q7LG56 whole entry, looked up): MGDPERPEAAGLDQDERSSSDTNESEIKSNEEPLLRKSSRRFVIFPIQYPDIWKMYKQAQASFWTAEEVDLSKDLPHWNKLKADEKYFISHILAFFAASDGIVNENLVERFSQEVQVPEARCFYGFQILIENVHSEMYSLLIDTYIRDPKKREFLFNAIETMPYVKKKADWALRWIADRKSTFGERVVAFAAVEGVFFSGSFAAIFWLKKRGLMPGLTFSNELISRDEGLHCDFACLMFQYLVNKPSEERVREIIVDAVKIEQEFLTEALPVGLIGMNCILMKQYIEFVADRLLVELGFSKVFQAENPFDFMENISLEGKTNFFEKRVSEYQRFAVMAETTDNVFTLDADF
Molecule `Cc1ccc(F)c([C@@H](C)[C@H](NS(=O)(=O)c2ccccc2C(=O)NO)c2n[nH]c(=O)o2)c1C` has an IC50 of 310 nM. `Cc1ccc(F)c([C@@H](C)[C@H](NS(=O)(=O)c2ccc(Cl)cc2C(=O)NCCO)c2n[nH]c(=O)o2)c1C` showed an IC50 of 270 nM. Molecule `Cc1cccc([C@@H](C)[C@H](NS(=O)(=O)c2ccc(Br)cc2C(N)=O)c2n[nH]c(=O)o2)c1C` has an IC50 of 380 nM. For `COc1cc(C(N)=O)c(S(=O)(=O)N[C@H](c2n[nH]c(=O)o2)[C@H](C)c2c(F)ccc(C)c2C)cc1OC`, the IC50 was 360 nM. `Cc1ccc(F)c([C@@H](C)[C@H](NS(=O)(=O)c2ccc(C(F)(F)F)cc2C(N)=O)c2n[nH]c(=O)o2)c1C` was tested, and the IC50 was 100 nM. Work on `COc1cc(Cl)ccc1S(=O)(=O)N[C@H](c1n[nH]c(=O)o1)[C@H](C)c1cccc(C)c1C(C)C` yielded an IC50 of 840 nM. In the case of `COc1cc(Cl)ccc1S(=O)(=O)N[C@H](c1n[nH]c(=O)o1)[C@H](C)c1c(F)ccc(-c2cnn(C3CCC3)c2)c1C`, the IC50 is reported as 220 nM. Molecule `Cc1ccc(F)c([C@@H](C)[C@H](NS(=O)(=O)c2ccc(Cl)c(C(=O)N(C)C)n2)c2n[nH]c(=O)o2)c1C` has an IC50 of 80 nM. `CCn1cc(-c2ccc(F)c([C@@H](C)[C@H](NS(=O)(=O)c3ccc(Cl)cc3OC)c3n[nH]c(=O)o3)c2C)cn1` was tested, and the IC50 was 170 nM. `COc1c(S(=O)(=O)N[C@H](c2n[nH]c(=O)o2)[C@H](C)c2c(F)ccc(C)c2C)ccc(Cl)c1C(C)(C)O` gave an IC50 of 110 nM. Molecule `Cc1ccc(F)c([C@@H](C)[C@H](NS(=O)(=O)c2ncc(Cl)cc2C(N)=O)c2n[nH]c(=O)o2)c1C` has an IC50 of 40 nM. Work on `Cc1c(Cl)ccc(F)c1[C@@H](C)[C@H](NS(=O)(=O)c1ccc(Cl)c2c1OCCN2C)c1n[nH]c(=O)o1` yielded an IC50 of 130 nM. `COc1cc(Cl)ccc1S(=O)(=O)N[C@H](c1n[nH]c(=O)o1)[C@H](C)c1c(F)ccc(-c2ccc(N3CCOCC3)nc2)c1C` gave an IC50 of 190 nM. `CCc1ccc(F)c([C@@H](C)[C@H](NS(=O)(=O)c2ccc(Cl)cc2C(N)=O)c2n[nH]c(=O)o2)c1C` gave an IC50 of 180 nM. Molecule `Cc1ccc(S(=O)(=O)N[C@H](c2n[nH]c(=O)o2)[C@H](C)c2c(F)ccc(C)c2C)cc1` has an IC50 of 410 nM. `Cc1ccc(F)c([C@@H](C)[C@H](NS(=O)(=O)c2ccc(Cl)c(C(=O)N3CC4CCC(C3)O4)n2)c2n[nH]c(=O)o2)c1C` showed an IC50 of 30 nM. `C[C@H](c1cccc2c1CCC2)[C@H](NS(=O)(=O)c1ccc(Cl)c(C(C)(C)O)n1)c1n[nH]c(=O)o1` showed an IC50 of 440 nM. In the case of `CCc1ccc(F)c([C@@H](C)[C@H](NS(=O)(=O)c2ccc(Cl)c(C(C)O)c2OC)c2n[nH]c(=O)o2)c1C` (stereo partly specified), the IC50 is reported as 150 nM. `Cc1ccc(S(=O)(=O)N[C@H](c2n[nH]c(=O)o2)[C@H](C)c2c(F)ccc3ccccc23)c(C(N)=O)c1` gave an IC50 of 170 nM. In the case of `CC(=O)OC1(C)CCOc2c(S(=O)(=O)N[C@H](c3n[nH]c(=O)o3)[C@H](C)c3c(F)ccc(Br)c3C)ccc(Cl)c21` (stereo partly specified), the IC50 is reported as 80 nM. In the case of `Cc1c(C2CC2)ccc(F)c1[C@@H](C)[C@H](NS(=O)(=O)c1ccc(Cl)cc1C(N)=O)c1n[nH]c(=O)o1`, the IC50 is reported as 160 nM.
